Data reported in US11453695B2, “Nucleoside analogues and methods of use thereof” (priority 2016, dated 2022).
Where two headings read alike, the source gives them in different places.

Experiments:
[1] = tested on: pancreatic cancer cells; conditions: background, reported; cited from earlier work
[2] = tested on: Panc-1 (pancreas) cells; test: Growth inhibition in cancer cell lines (FIG. 5); assay type: cell-based, human; conditions: KRAS mutation
Text: Molecules such as LCB-2151 and LCB-2132 (Group B) and LCB-2179 (Group C) indeed show antiproliferative activities against cancer cell lines with KRAS mutations. FIG. 5 presents the activity of LCB-2151, LCB-2179, LCB-2132 and Gemcitabine in different cancer cell lines. Most liver and pancreas cell lines have the KRAS protein (oncogene identified in Kiersten rat sarcoma virus), which alters its signal transduction pathway, are resistant to Gemcitabine. […] Both HepG-2 (liver) and Panc-1 (pancreas) have the KRAS mutation and are resistant to Gemcitabine.
(§1) Cells were plated in 96 well plates at a density of 10^4 cells/well and grown for 24 h. Cells were treated with different concentrations of the test compounds or vehicle alone (DMSO) and grown at 37° C. under a humidified 5% CO2 atmosphere. Their corresponding medium was used to dilute the 10 mM stocks of each compound to obtain 1 mM stock solutions and subsequently, the treatment concentrations. After 96 hours of incubation, the plates were equilibrated at room temperature for 30 minutes, […] of Cell Titer Glo® Luminometric Cell Viability Assay reagent (Promega) was added into each well, put on an orbital shaker for 2 minutes and incubated for 10 minutes at room temperature. The plate was transferred to a luminometer (Glomax Promega) and the luminescent signal was recorded. Each treatment at different concentration and the control group were triplicates or duplicates.

[3] = tested on: Capan-2 (pancreas adenocarcinoma) cell line; test: Cell viability assay (Cell Titer Glo), growth inhibition; assay type: cell-based, human
Method: (§2) Growth inhibition of the compound comprises in the invention was tested in vitro using human cancer cell cultures
(§3) HepG2 (liver human hepatocellular carcinoma), BxPC3 and Capan-2 (adenocarcinomas), A549 (lung carcinoma), HCT-116 (colorectal carcinoma) and MCF-7 (breast tumor) cell lines were obtained from ATCC. The HepG2, BxPC3, Capan-2 and MCF-7 cells were placed into 75 ccm^3 tissue culture flasks and grown at 37° C. under a humidified 5% CO2 atmosphere in EMEM and RPMI-1640 medium respectively with 10% fetal bovine serum and 2% penicillin-streptomycin. Trypsin (0.05%) was used to detach cells from the bottom of flask.
as §1
(§4) This is a homogeneous method to determine the number of viable cells in culture based on quantification of the ATP present which signals the presence of metabolically active cells.

[4] = tested on: BxPC3 (pancreas adenocarcinoma) cell line; test: as above; assay type: cell-based, human
Method: as §2, §3, §1, §4

[5] = tested on: HepG2 (liver human hepatocellular carcinoma) cell line; test: as above; assay type: cell-based
Method: as §2, §3, §1, §4

[6] = tested on: MCF-7 (breast tumor) cell line; test: as above; assay type: cell-based; conditions: Homo sapiens, MCF7, 96 hours of incubation
Method: as §2, §3, §1, §4

[7] = tested on: HCT-116 (colorectal carcinoma) cell line; test: as above; assay type: cell-based; conditions: Homo sapiens, 96 hours of incubation, read-out: Growth Inhibition (%) At 20 μM, HCT-116 (Colon)
Method: as §2, §3, §1, §4

[8] = tested on: A549 (lung carcinoma) cell line; test: as above; assay type: cell-based; conditions: Homo sapiens, 96 hours of incubation
Method: as §2, §3, §1, §4

[9] = tested on: KRAS mutated human pancreatic and liver cancer cell lines (HepG-2, Panc-1, Capan-2); test: Activity in KRAS mutated, Gemcitabine-resistant cancer cell lines; assay type: cell-based
Method: Liver and pancreatic cancer patients have an extremely poor survival rate (Table 1).
as §1

[10] = tested on: Human fibroblast cell lines (HFF); test: Cell toxicity in the HCMV assay (Cellglo, luminescence); assay type: cell-based; conditions: 150 μM; HFF cells
Method: (§5) Table 4 presents results for Human cytomegalovirus (HCMV), which causes serious diseases in immune compromised hosts, particularly for transplantation recipient. Cytopathic effect (CPE) of A1-169 HMCV variant virus was measured using Human fibroblast cell lines (HFF). Cell titer were measured using Cellglo assay and luminescence in presence or absence of group A of molecules. […] 90% reduction of viral load was attained at 0.25 μM and no cell death was measured in presence of 150 μM of the tested compound, testifying of its lack of intrinsic cell toxicity. Ganciclovir the clinical gold standard in the treatment of HCMV has bee reported as active against the same strand at 1 to 3 μM.

[11] = as above; assay type: cell-based, human; conditions: human, human fibroblast cell lines (HFF); HFF cells
Method: as §5

[12] = tested on: HCMV/AD169; test: Antiviral effect, cytopathic effect (CPE) of HCMV in HFF cells; assay type: cell-based, Human cytomegalovirus (HCMV)
Method: as §5

[13] = BXPC3 (pancreas), KRAS wild type
[14] = Homo sapiens, Capan-2, 96 h, read-out: Growth Inhibition (%) At 20 μM, Capan-2 (Pancreas)
[15] = Homo sapiens, BXPC-3, 96 h, read-out: Growth Inhibition (%) At 20 μM, BxPC3 (Pancreas)
[16] = Homo sapiens, HepG2, 96 h, read-out: Growth Inhibition (%) At 20 μM, HepG2 (Liver)
[17] = Homo sapiens, Capan-2; read-out: IC50 (μM), Capan-2 (Pancreas), antiproliferative activity
[18] = Homo sapiens, BXPC-3; read-out: IC50 (μM), BxPC3 (Pancreas), antiproliferative activity
[19] = Homo sapiens, HepG2; read-out: IC50 (μM), HepG2 (Liver), antiproliferative activity

SMILES | inhibition at 20 µM [3, 14] [%] | inhibition at 20 µM [4, 15] [%] | inhibition at 20 µM [5, 16] [%] | inhibition at 20 µM [6] [%] | inhibition at 20 µM [7] [%] | inhibition at 20 µM [8] [%] | also measured
CCCCCCCC(=O)Nc1ccn([C@@H]2O[C@H](CO)[C@@H](O)C2(F)F)c(=O)n1 |  |  |  |  |  |  | EC50 [1]: 100 µM
Nc1ccn([C@@H]2O[C@H](CO)[C@@H](O)C2(F)F)c(=O)n1 [Gemcitabine, reference compound] |  |  |  |  |  |  | plateau of inhibition (FIG. 5) ([2]; second of the two plateaus named): 30%; growth inhibition (FIG. 5), in words ([3]; Capan-2): no growth inhibition; growth inhibition (FIG. 5), in words [4, 13]: growth is blocked; plateau of inhibition (FIG. 5) ([5]; HepG-2 (liver), KRAS mutation; first of the two plateaus named): 50%
CC(C)OC(=O)[C@H](C)NP(=O)(OC[C@H]1O[C@@H](n2cnc3c(NCc4ccccc4)nc(Cl)nc32)[C@H](F)C1(C)COP(=O)(N[C@@H](C)C(=O)OC(C)C)Oc1ccccc1)Oc1ccccc1 (some centres unmarked) [LCB2076] | 14 | 25 | 0 | 69 | 10 |  | 
COc1nc(Cl)nc2c1ncn2[C@@H]1O[C@H](COP(=O)(N[C@@H](C)C(=O)OC(C)C)Oc2ccccc2)C(C)(COP(=O)(N[C@@H](C)C(=O)OC(C)C)Oc2ccccc2)[C@H]1F (some centres unmarked) [LCB2079] | 50 | 40 | 72 | 96 | 51 | 70 | inhibition at 50 µM ([6]; 50 μM): > 96%
CC(C)OC(=O)[C@H](C)NP(=O)(OC[C@H]1O[C@@H](n2cnc3c(N)nc(Cl)nc32)[C@H](F)C1(C)COP(=O)(N[C@@H](C)C(=O)OC(C)C)Oc1ccccc1)Oc1ccccc1 (some centres unmarked) [LCB2080] | 58 | 16 | 0 | 79 | 40 | 34 | 
CC(C)OC(=O)[C@H](C)NP(=O)(OC[C@H]1O[C@@H](n2cnc3c(N)ncnc32)C(F)(F)C1(C)COP(=O)(N[C@@H](C)C(=O)OC(C)C)Oc1ccccc1)Oc1ccccc1 (some centres unmarked) [LCB2092] | 48 | 62 | 16 | 54 | 60 | 25 | 
CC(C)OC(=O)[C@H](C)NP(=O)(OC[C@H]1O[C@@H](n2cnc3c(N)ncnc32)C(F)(F)C1(C)CO)Oc1ccccc1 (some centres unmarked) [LCB2093] | 22 | 6 | 6 | 14 | 28 | 0 | 
CC(C)OC(=O)[C@H](C)NP(=O)(OC[C@H]1O[C@@H](n2cnc3c(NCc4ccccc4)ncnc32)C(F)(F)C1(C)COP(=O)(N[C@@H](C)C(=O)OC(C)C)Oc1ccccc1)Oc1ccccc1 (some centres unmarked) [LCB2095] | 46 | 67 | 0 | 49 | 31 | 3 | 
CC(C)OC(=O)[C@H](C)NP(=O)(OC[C@H]1O[C@@H](n2cnc3c(N)nc(Cl)nc32)C(F)(F)C1(C)COP(=O)(N[C@@H](C)C(=O)OC(C)C)Oc1ccccc1)Oc1ccccc1 (some centres unmarked) [LCB2105] | 48 | 47 |  |  | 53 |  | 
CC(C)(CCC(CCSCc1ccc(C(F)(F)F)cc1)SCc1ccc(C(F)(F)F)cc1)CC(=O)Nc1ccn([C@H]2CC(O)[C@@H](CO)O2)c(=O)n1 (some centres unmarked) [LCB-2132] |  |  |  |  |  |  | EC90 activity against KRAS mutated cancer cell lines resistant to Gemcitabine [9]: show EC90 activity
CC(C)(CCC(CCSCc1ccc(C(F)(F)F)cc1)SCc1ccc(C(F)(F)F)cc1)CC(=O)Nc1ccn([C@@H]2O[C@H](CO)[C@@](C)(CO)C2(F)F)c(=O)n1 (stereo partly drawn) [LCB-2139, N-(1-((2R,4R,5S)-3,3-difluoro-4,5-bis(hydroxymethyl)-4-methyltetrahydrofuran-2-yl)-2-oxo-1,2-dihydropyrimidin-4-yl)-3,3-dimethyl-6,8-bis((4-(trifluoromethyl)benzyl)thio)octanamide] |  |  |  |  |  |  | IC50 [3, 17]: 8 µM; IC50 [4, 18]: 8 µM; IC50 [5, 19]: 8 µM
CC(C)(CCC(CCSCc1ccc(F)cc1)SCc1ccc(F)cc1)CC(=O)Nc1ccn([C@@H]2O[C@H](CO)[C@@](C)(CO)C2(F)F)c(=O)n1 (stereo partly drawn) [LCB-2140, N-(1-((2R,4R,5S)-3,3-difluoro-4,5-bis(hydroxymethyl)-4-methyltetrahydrofuran-2-yl)-2-oxo-1,2-dihydropyrimidin-4-yl)-6,8-bis((4-fluorobenzyl)thio)-3,3-dimethyloctanamide] |  |  |  |  |  |  | IC50 [3, 17]: 12.5 µM; IC50 [4, 18]: 8 µM; IC50 [5, 19]: 8 µM
CC(C)(CC[C@H](CCSCc1ccc(C(F)(F)F)cc1)SCc1ccc(C(F)(F)F)cc1)CC(=O)Nc1ccn([C@@H]2O[C@H](CO)[C@@](C)(CO)C2(F)F)c(=O)n1 [LCB-2151, (R)—N-(1-((2R,4R,5S)-3,3-difluoro-4,5-bis(hydroxymethyl)-4-methyltetrahydrofuran-2-yl)-2-oxo-1,2-dihydropyrimidin-4-yl)-3,3-dimethyl-6,8-bis((4-(trifluoromethyl)benzyl)thio) octanamide] |  |  |  |  |  |  | growth inhibition (FIG. 5), in words [2]: block completely the growth; growth inhibition (FIG. 5), in words ([3]; Capan-2): block completely the growth; IC50 [3, 17]: 8 µM; growth inhibition (FIG. 5), in words [4, 13]: block completely the growth; IC50 [4, 18]: 5 µM; growth inhibition (FIG. 5), in words ([5]; HepG-2 (liver), KRAS mutation): block completely the growth; IC50 [5, 19]: 8 µM; EC90 activity against KRAS mutated cancer cell lines resistant to Gemcitabine [9]: show EC90 activity
CC(C)OC(=O)[C@H](C)NP(=O)(OC[C@H]1O[C@@H](n2ccc(NC(=O)CC(C)(C)CC[C@H](CCSCc3ccc(C(F)(F)F)cc3)SCc3ccc(C(F)(F)F)cc3)nc2=O)[C@](C)(CO)[C@@H]1O)Oc1ccccc1 (stereo partly drawn) [LCB-2179, Isopropyl ((((2R,3S,4R,5R)-5-(4-(3,3-dimethyl-6,8-bis((4-(trifluoromethyl)benzyl)thio)octanamido)-2-oxopyrimidin-1(2H)-yl)-3-hydroxy-4-(hydroxymethyl)-4-methyltetrahydrofuran-2-yl)methoxy)(phenoxy)phosphoryl)-L-alaninate] |  |  |  |  |  |  | growth inhibition (FIG. 5), in words [2]: block completely the growth; growth inhibition (FIG. 5), in words ([3]; Capan-2): block completely the growth; IC50 ([3]; Homo sapiens, Capan-2, read-out: IC50 (μM), Capan-2 (Pancreas), antiproliferative activity): 15 µM; growth inhibition (FIG. 5), in words [4, 13]: block completely the growth; IC50 ([4]; Homo sapiens, BXPC-3, read-out: IC50 (μM), BxPC3 (Pancreas), antiproliferative activity): 7 µM; growth inhibition (FIG. 5), in words ([5]; HepG-2 (liver), KRAS mutation): block completely the growth; IC50 ([5]; Homo sapiens, HepG2, read-out: IC50 (μM), HepG2 (Liver), antiproliferative activity): 15 µM; EC90 activity against KRAS mutated cancer cell lines resistant to Gemcitabine [9]: show EC90 activity
CC(C)OC(=O)[C@H](C)NP(=O)(OC[C@H]1O[C@@H](n2ccc(N)nc2=O)[C@H](F)C1(C)CO)Oc1ccccc1 (some centres unmarked) [LCB-2187] |  |  |  |  |  |  | cell death in presence of the tested compound [10]: no cell death; CC50 [11]: > 150 µM; EC50 ([12]; Human betaherpesvirus 5, AD169, HFF, read-out: EC50 (μM), antiviral effect): < 0.05 µM; EC90 ([12]; Human betaherpesvirus 5, HCMV/AD169 in HFF cells): 0.25 µM
